Where “and” joins values, the source holds several entries; their conditions need not be identical. Equal entries are not always repeated.
Columns and labels:
[1] = Urinary excretion of ETV and estimated concentration in final urine; format: in vivo; settings: 1 mg dose, 24 h-urinary volume of 1 L
hCNT2 = target: T1, hCNT2 (Homo sapiens, UniProt O43868); experiment: [3H]ETV uptake in hCNT2 transfected cells; settings: 5 min, 37°C
T1 sequence (O43868 1-658): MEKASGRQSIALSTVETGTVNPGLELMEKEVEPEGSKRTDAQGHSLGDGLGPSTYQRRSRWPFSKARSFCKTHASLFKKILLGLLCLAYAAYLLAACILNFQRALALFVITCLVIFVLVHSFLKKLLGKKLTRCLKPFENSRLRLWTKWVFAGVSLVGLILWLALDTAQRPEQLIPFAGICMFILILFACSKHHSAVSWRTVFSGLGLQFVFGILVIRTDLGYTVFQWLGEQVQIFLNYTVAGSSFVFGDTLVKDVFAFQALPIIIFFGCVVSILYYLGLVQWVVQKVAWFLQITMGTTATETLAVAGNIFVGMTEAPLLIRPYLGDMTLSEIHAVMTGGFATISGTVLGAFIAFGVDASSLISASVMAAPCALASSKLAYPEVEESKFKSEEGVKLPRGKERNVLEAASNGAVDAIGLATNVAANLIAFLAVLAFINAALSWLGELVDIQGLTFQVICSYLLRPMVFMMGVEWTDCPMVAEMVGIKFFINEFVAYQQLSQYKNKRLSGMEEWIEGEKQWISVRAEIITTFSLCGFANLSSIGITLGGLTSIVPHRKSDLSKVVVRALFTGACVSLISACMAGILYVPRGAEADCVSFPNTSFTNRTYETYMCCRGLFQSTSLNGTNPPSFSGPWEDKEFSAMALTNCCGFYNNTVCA

hOAT1 = target: T2, hOAT1 (Homo sapiens, UniProt Q4U2R8); experiment: [3H]ETV uptake in hOAT1 transfected cells; format: in vitro ADME; design: host or cells: HeLa cells, transient transfection; settings: 5 min, 37°C
T2 sequence (Q4U2R8 1-563): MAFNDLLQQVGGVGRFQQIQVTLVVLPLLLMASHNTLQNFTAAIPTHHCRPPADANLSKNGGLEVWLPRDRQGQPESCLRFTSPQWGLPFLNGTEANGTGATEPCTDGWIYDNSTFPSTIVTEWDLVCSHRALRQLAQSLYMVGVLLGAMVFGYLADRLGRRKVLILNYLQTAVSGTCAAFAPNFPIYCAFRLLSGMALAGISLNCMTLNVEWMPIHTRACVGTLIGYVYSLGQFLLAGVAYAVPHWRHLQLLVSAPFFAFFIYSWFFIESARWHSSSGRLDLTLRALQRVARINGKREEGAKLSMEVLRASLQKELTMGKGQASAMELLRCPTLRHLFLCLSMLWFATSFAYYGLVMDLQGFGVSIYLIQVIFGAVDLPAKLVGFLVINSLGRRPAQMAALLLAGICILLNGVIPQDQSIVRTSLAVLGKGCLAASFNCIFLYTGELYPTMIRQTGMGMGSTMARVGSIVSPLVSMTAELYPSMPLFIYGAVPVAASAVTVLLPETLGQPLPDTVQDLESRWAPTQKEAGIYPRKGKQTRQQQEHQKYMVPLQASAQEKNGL

hCNT3 = target: T3, hCNT3 (Homo sapiens, UniProt Q9HAS3); experiment: Inhibition of [3H]uridine uptake in hCNT3 transfected MDCK II cells; format: in vitro ADME; design: host or cells: MDCK II cells, transient transfection; settings: 1 μM [3H]uridine, MDCK II cells transiently transfected with hCNT3, 2 min, 37°C; read-out: IC50, inhibition of hCNT3 mediated transport
T3 sequence (Q9HAS3 1-691): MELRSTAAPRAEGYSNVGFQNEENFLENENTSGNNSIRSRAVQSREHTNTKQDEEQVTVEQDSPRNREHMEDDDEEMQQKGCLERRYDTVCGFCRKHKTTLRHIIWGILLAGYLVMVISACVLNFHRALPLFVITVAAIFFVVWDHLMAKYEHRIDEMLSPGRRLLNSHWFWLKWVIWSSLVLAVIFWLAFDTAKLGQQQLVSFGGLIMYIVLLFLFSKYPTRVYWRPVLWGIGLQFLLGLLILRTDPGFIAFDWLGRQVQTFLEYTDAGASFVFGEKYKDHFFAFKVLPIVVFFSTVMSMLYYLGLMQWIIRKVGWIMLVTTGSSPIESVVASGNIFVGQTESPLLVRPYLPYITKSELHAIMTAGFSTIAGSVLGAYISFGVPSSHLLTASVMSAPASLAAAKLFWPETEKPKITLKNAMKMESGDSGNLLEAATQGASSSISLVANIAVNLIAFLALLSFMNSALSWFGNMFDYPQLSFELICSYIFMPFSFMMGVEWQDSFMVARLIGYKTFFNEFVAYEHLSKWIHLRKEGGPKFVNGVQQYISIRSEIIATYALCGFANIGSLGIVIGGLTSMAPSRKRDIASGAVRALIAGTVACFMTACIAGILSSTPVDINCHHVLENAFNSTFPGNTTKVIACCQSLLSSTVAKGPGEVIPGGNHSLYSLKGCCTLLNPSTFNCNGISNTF
Experimental: Inhibitory transport assays were carried out in 24-well plates as described previously ([Mandikova et al., 2013]). Transport assays in HeLa cells transiently transfected with the hOAT1 expression construct were performed 48 h after transfection. Transport assays in MDCK II cells transiently transfected with hOCT2, hCNT2 or hCNT3 were performed 24 h after transfection. The cultivation medium was removed and the cells were washed with transport solution and preincubated for 10 min at 37°C. The standard radiolabeled substrate or tested radioactive antiviral substance dissolved in transport solution was added to the cells and incubated for 2 min. [^3H]PAH (1 μM) was used as a prototypical substrate for OATs, [^3H]MPP^+ (1 μM) for OCTs and [^3H]uridine (1 μM) for CNTs. […] After the designated time period, the incubation was stopped by washing the cells twice with ice-cold solution containing 137 mM NaCl and 10 mM HEPES, pH 7.4. The cells were disintegrated with 0.1 mL of Triton X 0.5% in 100 mM NaOH for 1 h.
IC50 values were calculated using non-linear regression analysis using GraphPad Prism software (version 6).

- Estimated concentration in the final urine [1]: approximately 700 μg/L and ~2.5 μM
- Vmax of [3H]ETV uptake by hCNT2 (hCNT2): 68.88 nmol/mg protein/5 min
- Vmax of [3H]ETV uptake by hOAT1 (hOAT1): 0.91 nmol/mg protein/5 min
- IC50 (hCNT3): 278 µM
Compound: C=C1[C@H](CO)[C@@H](O)C[C@@H]1n1cnc2c(=O)[nH]c(N)nc21 [ETV, Entecavir]
